# Data published in US7288567B2, “Inhibitors of histone deacetylase” (Methylgene Inc., priority 2000, dated 2007).
# Tests used:
# [1] = system: acetylated histone H-4 in T24 human bladder cancer cells; assay: Histone H4 acetylation in whole cells by immunoblots; format: cell-based; details: T-24, read-out: EC50, concentration effective for reducing the acetylated H-4 signal by 50%, T24 cells, 16 hours incubation, immunoblot densitometry
# Procedure: T24 human bladder cancer cells growing in culture were incubated with HDAC inhibitors for 16 hours. Histones were extracted from the cells after the culture period as described by M. Yoshida et al. (J. Biol. Chem. 265(28): 17174-17179 (1990)). 20 μg of total histone protein was loaded onto SDS/PAGE and transferred to nitrocellulose membranes. Membranes were probed with polyclonal antibodies specific for acetylated histone H-4 (Upstate Biotech Inc.), followed by horse radish peroxidase conjugated secondary antibodies (Sigma). Enhanced Chemiluminescence (ECL) (Amersham) detection was performed using Kodak films (Eastman Kodak). Acetylated H-4 signal was quantified by densitometry.
# [2] = system: histone deacetylase enzyme in nuclear extracts from H446 cells (pooled HDACs); assay: Histone deacetylase inhibition, H446 nuclear extracts (pooled HDACs); format: biochemical, human; details: for IC50: H446 nuclear extract, [3H]-acetylated histone substrate; for pooled HDACs percent inhibition: percent inhibition at 20 μM (footnote)
# Procedure: HDAC inhibitors were screened against histone deacetylase enzyme in nuclear extracts prepared from the human small cell lung cancer cell line H446 (ATTC HTB-171) and against a cloned recombinant human HDAC-1 enzyme expressed and purified from a Baculovirus insect cell expression system.
# For deacetylase assays, 20,000 cpm of the [^3H]-metabolically labeled acetylated histone substrate (M. Yoshida et al., J. Biol. Chem. 265(28): 17174-17179 (1990)) was incubated with 30 μg of H446 nuclear extract or an equivalent amount of the cloned recombinant hHDAC-1 for 10 minutes at 37° C. The reaction was stopped by adding acetic acid (0.04 M, final concentration) and HCl (250 mM, final concentration). The mixture was extracted with ethyl acetate and the released [^3H]-acetic acid was quantified by scintillation counting. For inhibition studies, the enzyme was preincubated with compounds at 4° C. for 30 minutes prior to initiation of the enzymatic assay. IC50 values for HDAC enzyme inhibitors were determined by performing dose response curves with individual compounds and determining the concentration of inhibitor producing fifty percent of the maximal inhibition.
# [3] = target: T1, recombinant human HDAC-1 enzyme (rHDAC-1) (Homo sapiens, UniProt Q13547); assay: Histone deacetylase inhibition, recombinant human HDAC-1; format: biochemical; details: cloned recombinant human HDAC-1, Baculovirus insect cell expression; read-out: rHDAC-1 IC50
# T1 construct: made in house; host or cells: Baculovirus insect cell expression system
# T1 sequence (Q13547 whole entry): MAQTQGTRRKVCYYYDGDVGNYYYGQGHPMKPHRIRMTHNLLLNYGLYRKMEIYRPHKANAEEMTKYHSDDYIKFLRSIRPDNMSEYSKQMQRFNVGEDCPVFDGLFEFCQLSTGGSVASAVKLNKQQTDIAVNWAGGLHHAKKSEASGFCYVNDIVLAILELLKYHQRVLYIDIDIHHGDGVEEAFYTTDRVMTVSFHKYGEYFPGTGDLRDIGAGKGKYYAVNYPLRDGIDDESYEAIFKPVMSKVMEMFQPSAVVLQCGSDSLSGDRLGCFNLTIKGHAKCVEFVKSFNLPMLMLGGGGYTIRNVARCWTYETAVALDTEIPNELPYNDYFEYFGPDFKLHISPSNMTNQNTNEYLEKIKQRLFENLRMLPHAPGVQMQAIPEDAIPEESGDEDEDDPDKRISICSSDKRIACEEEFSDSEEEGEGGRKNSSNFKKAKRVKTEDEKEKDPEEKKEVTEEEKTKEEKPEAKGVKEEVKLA
# In short: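 Recombinant human HDAC-1 or pooled HDACs from H446 nuclear extracts were preincubated with compounds for 30 min at 4 °C before the reaction. Released [3H]-acetic acid was extracted with ethyl acetate after acid stop and counted by scintillation. IC50 was the concentration giving half-maximal inhibition from dose-response curves.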
# [4] = system: A549 human lung carcinoma cells; assay: Antineoplastic effect on A549 tumors in nude mice; format: in vivo, BALB/c nude mice; details: A549 xenograft, daily injection about 10 to about 50 mg/kg, 21 days
# Procedure: Eight to ten week old female BALB/c nude mice (Taconic Labs, Great Barrington, N.Y.) were injected subcutaneously in the flank area with 2×10^6 preconditioned A549 human lung carcinoma cells. Preconditioning of these cells was accomplished by a minimum of three consecutive tumor transplantations in the same strain of nude mice. Subsequently, tumor fragments of approximately 30 mgs were excised and implanted subcutaneously in mice, in the left flank area, under isoflurane anesthesia (Abbott Labs, Geneva, Switzerland). When the tumors reached a mean volume of 100 mm^3, the mice were treated intravenously, subcutaneously or intraperitoneally, by daily injection of a solution of the inhibitor in an appropriate vehicle such as PBS, DMSO/water, or Tween 80/water, at a dose from about 10 mg/kg to about 50 mg/kg, for 21 days. Tumor volume was calculated every second day post infusion according to standard methods (e.g., Meyer et al., Int. J. Cancer 43: 851-856 (1989)).
# HDAC = details: Richon et al. 1998; cited from earlier work
# cell growth = details: Finnin et al. 1999; cited from earlier work
# tumors = details: Finnin et al. 1999; cited from earlier work
# rat fibroblasts = details: Yoshida and Beppu 1988; cited from earlier work
Structure (SMILES),EC50 [1] [µM],IC50 [2] [µM],IC50 [3] [µM],also measured
"COc1ccc(C(C/C=C/C=C/C(=O)Nc2ccccc2N)OC)cc1 (stereo not shown) [Compound 18, N-(2-Aminophenyl)-7-methoxy-7-(4-methoxyphenyl)-2,4-heptadienamide]",10,> 100,1,
CC(/C=C/C(=O)Nc1ccccc1N)=C\C(C)Cc1ccc(N(C)C)cc1 (stereo not shown) [Compound 39],10,> 20,7,
"Nc1ccccc1NC(=O)CCCCCCC(=O)c1ccc(-c2ccccc2)cc1 [Compound 77, N-(2-Aminophenyl)-7-[(4-biphenyl)carbonyl]heptanamide]",10,,1.9,pooled HDACs percent inhibition [2]: 11%
"COc1ccc(-c2ccc(C(=O)CCCCCCC(=O)NO)cc2)cc1 [Compound 120, N-Hydroxy-7-[4-(4-methoxyphenyl)benzoyl]heptanamide]",10,,0.002,pooled HDACs percent inhibition [2]: 83%
"Nc1ccccc1NC(=O)CCCCCCC(=O)c1ccc(-c2ccccc2)nc1 [Compound 146, N-(2-Aminophenyl)-7-[(5-(2-phenyl)pyridyl)carbonyl]heptanamide]",5,,2,
"Nc1ccccc1NC(=O)/C=C/C=C/CCC(=O)c1ccc(-c2ccccc2)cc1 [Compound 204, (E,E)-N-(2-Aminophenyl)-7-[(4-biphenyl)carbonyl]-2,4-heptadienamide]",15,,5,
"O=C(CCCCCCC(=O)Nc1ccccc1)NO [SAHA, suberoylanilide hydroxamic acid]",,,,HDAC activity (HDAC): inhibited; cell growth (cell growth): inhibit cell growth; terminal differentiation (cell growth): induce terminal differentiation; formation of tumors in mice (tumors): prevent the formation of tumors in mice
"CC(/C=C/C(=O)NO)=C\[C@@H](C)C(=O)c1ccc(N(C)C)cc1 [TSA, trichostatin A]",,,,HDAC activity (HDAC): inhibited; cell growth (cell growth): inhibit cell growth; terminal differentiation (cell growth): induce terminal differentiation; formation of tumors in mice (tumors): prevent the formation of tumors in mice; cell cycle arrest (rat fibroblasts): causes arrest of rat fibroblasts at the G1 and G2 phases of the cell cycle

# Further compounds by falling EC50 [1], results first:
EC50 [1] [µM],IC50 [2] [µM],IC50 [3] [µM],Structure (SMILES),also measured
5,> 20,3,"COC(C/C=C/C=C/C(=O)Nc1ccccc1N)c1ccc(N(C)C)cc1 (stereo not shown) [Compound 20, N-(2-Aminophenyl)-7-methoxy-7-[4-(N,N-dimethylamino)phenyl]-2,4-heptadienamide]",
5,> 100,7,"COC(c1ccc(N(C)C)cc1)C(C)/C=C(C)/C=C/C(=O)Nc1ccccc1N (stereo not shown) [Compound 34, N-(2-Aminophenyl)-4,6-dimethyl-7-methoxy-7-[4-(N,N-dimethylamino)phenyl]-2,4-heptadienamide]",tumor weight and volume relative to saline controls [4]: significant reduction in tumor weight and volume
5,> 100,2,"CC(/C=C/C(=O)Nc1ccccc1N)=C\C(C)C(=O)c1ccc(N(C)C)cc1 (stereo not shown) [Compound 35, N-(2-Aminophenyl)-4-methyl-6-[4-(N,N-dimethylamino)benzoyl]-2,4-heptadienamide]",
5,0.051,0.006,"O=C(CCCCCCC(=O)c1ccc(N2CCN(c3ccccc3)CC2)cc1)NO [Compound 138g, N-Hydroxy-7-[4-(1-(4-phenylpiperazinyl))benzoyl]heptanamide]",
3,,4,"COc1ccc(-c2ccc(C(=O)CCCCCCC(=O)Nc3ccccc3N)cn2)cc1OC [Compound 151, N-(2-Aminophenyl)-7-[5-(2-(3,4-dimethoxyphenyl)pyridyl)carbonyl]heptanamide]",
3,,0.04,"O=C(/C=C/C=C/CCC(=O)c1ccc(-c2ccccc2)cc1)NO [Compound 205, (E,E)-N-Hydroxy-7-[(4-biphenyl)carbonyl]-2,4-heptadienamide]",
3,,3,"Cc1ccc2c(c1)C(=O)N(CCCCCC(=O)Nc1ccccc1N)C2=O [Compound 243d, N-(2-Aminophenyl)-6-(5-methyl-N-phthaloyl)hexanamide]",
1,,2,"Nc1ccccc1NC(=O)CCCCCN1C(=O)c2cccc3c(CN4CCCCC4)c(O)cc(c23)C1=O [Compound 251c, N-(2-Aminophenyl)-6-[2-(5-hydroxy-1,3-dioxo-6-(1-methylpiperidynyl)-1H,3H-benzo[de]isoquinolinyl)]-hexanamide]",
